{
  "source": "patent US7988776B2",
  "about": "“Coloring composition, thermal transfer recording ink sheet, thermal transfer recording method, color toner, inkjet ink, color filter, and azo dye” (Fujifilm Corporation, priority 2007, dated 2011)",
  "assay_type_in_all_cases": "physicochemical",
  "key": {"[1]": {"assay": "Absorption spectrometry in ethyl acetate solution (maximum absorption wavelength)", "settings": "concentration 1×10^−6 mol/L, optical path length 10 mm", "experimental": "The thus-obtained compounds (1), (2), (5) and (10) were analyzed absorption spectrometry in an ethyl acetate solution (concentration: 1×10^−6 mol/L, optical path length: 10 mm)."}, "[2]": {"assay": "Dye solubility in ink sheet construction", "parameters": "key: A (easily soluble); B (soluble); C (difficult to dissolve, but soluble)", "settings": "dye-donating layer-forming coating composition, methyl ethyl ketone/toluene (1/1)", "source_text": "A polyester film (Lumirror, trade name by Toray) having a thickness of 6.0 μm and processed for heat-resistant lubrication with a thermosetting acrylic resin (thickness 1 μm) on its back was used as a support.\nThe dye solubility was ranked in three, A (easily soluble), B (soluble) r C (difficult to dissolve, but soluble)."}, "[3]": {"assay": "Light fastness of recorded images under Xe light", "settings": "retention of status A reflection density 1.0 after Xe light (17000 lux) for 7 days", "experimental": "Next, the recorded samples were exposed to an Xe light (17000 lux) for 7 days, and tested for the light stability (light fastness) of the recorded images. After the exposure, the status A reflection density of the part of each sample having an original status A reflection density of 1.0 before the exposure was measured, and the retention (by percentage) to the reflection density of 1.0 after exposure to that before exposure indicates the image stability. With the retention percentage, the samples were ranked in three, A (from 80% to less than 100%), B (from 60% to less than 80%), C (less than 60%)."}},
  "data": [
    {"smiles": "C=CCN(CC=C)c1ccc(/N=N/c2c(C#N)c(C(C)(C)C)nn2S(C)(=O)=O)c(NC(C)=O)c1", "note": "[(5)]", "values": [
      {"measurement": "Maximum Absorption Wavelength", "setting": "[1]", "value": 539, "unit": "nm"},
      {"measurement": "Solubility", "setting": "[2]", "value": "A"},
      {"measurement": "Light Fastness", "setting": "[3]", "value": "A (A (from 80% to less than 100%))"}
    ]}
  ]
}
